Experimental data: patent US9480729B2, “Enzymes for inhibiting growth of biofilms and degrading same” (C5-6 Technologies, Inc., priority 2012, dated 2016)

B1: P043 CelH: Clostridium thermocellum CelH enzyme (gene Cthe_1472) represented by SEQ ID NO:12 (protein, listed as Clostridium thermocellum)
chain: IKSFQELQGRKLDIVHQFINWSTDFSWVRPYADAVYNNGSILMITWEPWEYNTVDIKNGKADAYITRMAQDMKAYGKEIWLRPLHEANGDWYPWAIGYSSRVNTNETYIAAFRHIVDIFRANGATNVKWVFNVNCDNVGNGTSYLGHYPGDNYVDYTSIDGYNWGTTQSWGSQWQSFDQVFSRAYQALASINKPIIIAEFASAEIGGNKARWITEAYNSIRTSYNKVIAAVWFHENKETDWRINSSPEALAAYREAIGAGSSNPTPTPTWTSTPPSSSPKAVDPFEMVRKMGMGTNLGNTLEAPYEGSWSKSAMEYYFDDFKAAGYKNVRIPVRWDNHTMRTYPYTIDKAFLDRVEQVVDWSLSRGFVTIINSHHDDWIKEDYNGNIERFEKIWEQIAERFKNKSENLLFEIMNEPFGNITDEQIDDMNSRILKIIRKTNPTRIVIIGGGYWNSYNTLVNIKIPDDPYLIGTFHYYDPYEFTHKWRGTWGTQEDMDTVVRVFDFVKSWSDRNNIPVYFGEFAVMAYADRTSRVKWYDFISDAALERGFACSVWDNGVFGSLDNDMAIYNRDTRTFDTEILNALFNPGTYPSYSPKPSPTPRPTKPPVTPAVGEKMLDDFEGVLNWGSYSGEGAKVSTKIVSGKTGNGMEVSYTGTTDGYWGTVYSLPDGDWSKWLKISFDIKSVDGSANEIRFMIAEKSINGVGDGEHWVYSITPDSSWKTIEIPFSSFRRRLDYQPPGQDMSGTLDLDNIDSIHFMYANNKSGKFVVDNIKLIGATSDPTPSIKHGDLNFDNAVNSTDLLMLKRYILKSLELGTSEQEEKFKKAADLNRDNKVDSTDLTILKRYLLKAISEIPI

What was measured:
[1] = cited from earlier work
[2] = test system: Pseudomonas aeruginosa biofilm; assay: Sugar release / solubilization of dehydrated P. aeruginosa biofilm by carbohydrate-active enzymes; settings: individual enzymes, dehydrated biofilm in PBS, 37° C., 19 hr / overnight

| Molecule | maximal attainable concentration in the CF lung [1] [µg/mL] | digestion (solubilization, hydrolysis) of the Pseudomonas aeruginosa biofilm, sugar release [2] |
| --- | --- | --- |
| NC[C@H]1O[C@H](O[C@H]2[C@H](O)[C@@H](O[C@H]3O[C@H](CO)[C@@H](O)[C@H](N)[C@H]3O)[C@H](N)C[C@@H]2N)[C@H](N)C[C@@H]1O [tobramycin] | ~1000 | – |
| egg yolk lysozyme: egg yolk lysozyme (Sigma L4919) | – | None of these three enzymes showed significant hydrolysis |
| B1 | – | positive results |
